Assay results from patent publication US4684664A, “Derivatives of β-(4-isocyano-1,2,3,4-diepoxycyclopentyl) acrylic acid” (Kureha Kagaku Kogyo Kabushiki Kaisha, priority 1984, dated 1987).
In brackets after ≈: the same amount, converted by molar mass.

Legend:
Format in all cases: cell-based
[1] = system: Staphylococcus aureus FDA 209PJc-1; experiment: Antibacterial activity, agar-dilution MIC, organism No. 1; settings: Staphylococcus aureus, FDA209PJC1; Organism No. 1, bouillon-agar; read-out: Minimum Inhibitory Concentration
Method in brief: (§1)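 Dilution in agar (bouillon-agar base) is the format; activity is expressed as MIC, μg per ml medium.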

[2] = system: Staphylococcus aureus Terajima; experiment: Antibacterial activity, agar-dilution MIC, organism No. 2; settings: Staphylococcus aureus; Organism No. 2, bouillon-agar; read-out: Minimum Inhibitory Concentration
Method in brief: as §1

[3] = system: Staphylococcus aureus MS 353; experiment: Antibacterial activity, agar-dilution MIC, organism No. 3; settings: Staphylococcus aureus, MS353; Organism No. 3, bouillon-agar; read-out: Minimum Inhibitory Concentration
Method in brief: as §1

[4] = system: Streptococcus pyogenes Cook; experiment: Antibacterial activity, agar-dilution MIC, organism No. 4; settings: Streptococcus pyogenes; Organism No. 4, bouillon-agar; read-out: Minimum Inhibitory Concentration
Method in brief: as §1

[5] = system: Escherichia coli NIHJ-JC-2; experiment: Antibacterial activity, agar-dilution MIC, organism No. 5; settings: Escherichia coli, NIHJJC2; Organism No. 5, bouillon-agar; read-out: Minimum Inhibitory Concentration
Method in brief: as §1

[6] = system: Escherichia coli K12 C600 IAM 1264; experiment: Antibacterial activity, agar-dilution MIC, organism No. 6; settings: Escherichia coli, IAM1264; Organism No. 6, bouillon-agar; read-out: Minimum Inhibitory Concentration
Method in brief: as §1

[7] = system: Klebsiella pneumoniae PCI-602; experiment: Antibacterial activity, agar-dilution MIC, organism No. 7; settings: Klebsiella pneumoniae, PCI602; Organism No. 7, bouillon-agar; read-out: Minimum Inhibitory Concentration
Method in brief: as §1

[8] = system: Salmonella typhimurium IID 971; experiment: Antibacterial activity, agar-dilution MIC, organism No. 8; settings: Salmonella enterica; Organism No. 8, bouillon-agar; read-out: Minimum Inhibitory Concentration
Method in brief: as §1

Salmonella typhi 901 = experiment: Antibacterial activity, agar-dilution MIC, organism No. 9; settings: Salmonella enterica, TYPHI, read-out: Minimum Inhibitory Concentration
Method in brief: as §1

[9] = system: Salmonella paratyphi-A 1015; experiment: Antibacterial activity, agar-dilution MIC, organism No. 10; settings: Salmonella enterica, PARATYPHI, read-out: Minimum Inhibitory Concentration
Method in brief: as §1

[10] = system: Salmonella shottmuelleri 8006; experiment: Antibacterial activity, agar-dilution MIC, organism No. 11; settings: Salmonella, 8006; Organism No. 11, bouillon-agar; read-out: Minimum Inhibitory Concentration
Method in brief: as §1

[11] = system: Salmonella enteritidis G 14; experiment: Antibacterial activity, agar-dilution MIC, organism No. 12; settings: Salmonella enterica, ENTERITIDIS; Organism No. 12, bouillon-agar; read-out: Minimum Inhibitory Concentration
Method in brief: as §1

[12] = system: Serratia marcescens IAM 1184; experiment: Antibacterial activity, agar-dilution MIC, organism No. 13; settings: Serratia marcescens, IAM1184; Organism No. 13, bouillon-agar; read-out: Minimum Inhibitory Concentration
Method in brief: as §1

[13] = system: Bacillus subtilis ATCC 6633; experiment: Antibacterial activity, agar-dilution MIC, organism No. 14; settings: Bacillus subtilis, ATCC6633; Organism No. 14, bouillon-agar; read-out: Minimum Inhibitory Concentration
Method in brief: as §1

[14] = system: Pseudomonas aeruginosa IFO 3445; experiment: Antibacterial activity, agar-dilution MIC, organism No. 15; settings: Pseudomonas aeruginosa, IFO3445; Organism No. 15, bouillon-agar; read-out: Minimum Inhibitory Concentration
Method in brief: as §1

[15] = system: Pseudomonas aeruginosa NCTC 10490; experiment: Antibacterial activity, agar-dilution MIC, organism No. 16; settings: Pseudomonas aeruginosa, NCTC10490; Organism No. 16, bouillon-agar; read-out: Minimum Inhibitory Concentration
Method in brief: as §1

[16] = system: Pseudomonas aeruginosa PAO 1; experiment: Antibacterial activity, agar-dilution MIC, organism No. 17; settings: Pseudomonas aeruginosa, PAO1; Organism No. 17, bouillon-agar; read-out: Minimum Inhibitory Concentration
Method in brief: as §1

[17] = system: Proteus morganii IFO 3848; experiment: Antibacterial activity, agar-dilution MIC, organism No. 18; settings: Morganella morganii, IFO3848; Organism No. 18, bouillon-agar; read-out: Minimum Inhibitory Concentration
Method in brief: as §1

[18] = system: Proteus mirabilis IFO 3849; experiment: Antibacterial activity, agar-dilution MIC, organism No. 19; settings: Proteus mirabilis, IFO3849; Organism No. 19, bouillon-agar; read-out: Minimum Inhibitory Concentration
Method in brief: as §1

Proteus vulgaris OX-19 = experiment: Antibacterial activity, agar-dilution MIC, organism No. 20; settings: Proteus vulgaris, OX19; Organism No. 20, bouillon-agar; read-out: Minimum Inhibitory Concentration
Method in brief: as §1

Proteus vulgaris HX-19 = experiment: Antibacterial activity, agar-dilution MIC, organism No. 21; settings: Proteus vulgaris, HX19; Organism No. 21, bouillon-agar; read-out: Minimum Inhibitory Concentration
Method in brief: as §1

[19] = system: Proteus rettgeri IFO 3850; experiment: Antibacterial activity, agar-dilution MIC, organism No. 22; settings: Providencia rettgeri, IFO3850; Organism No. 22, bouillon-agar; read-out: Minimum Inhibitory Concentration
Method in brief: as §1

[20] = system: Enterobacter aerogenes ATCC 13048; experiment: Antibacterial activity, agar-dilution MIC, organism No. 23; settings: Klebsiella aerogenes, ATCC13048; Organism No. 23, bouillon-agar; read-out: Minimum Inhibitory Concentration
Method in brief: as §1

Enterobacter cloacae 963 = experiment: Antibacterial activity, agar-dilution MIC, organism No. 24; settings: Enterobacter cloacae, 963; Organism No. 24, bouillon-agar; read-out: Minimum Inhibitory Concentration
Method in brief: as §1

[21] = system: Micrococcus luteus ATCC 9341; experiment: Antibacterial activity, agar-dilution MIC, organism No. 25; settings: Micrococcus luteus, ATCC9341; Organism No. 25, bouillon-agar; read-out: Minimum Inhibitory Concentration
Method in brief: as §1

[22] = system: Streptococcus pyogenes IFO 3340; experiment: Antibacterial activity, agar-dilution MIC, organism No. 26; settings: Streptococcus pyogenes, IFO3340; Organism No. 26, bouillon-agar; read-out: Minimum Inhibitory Concentration
Method in brief: as §1

[23] = system: Streptococcus faecium IFO 3826; experiment: Antibacterial activity, agar-dilution MIC, organism No. 27; settings: Enterococcus faecium, IFO3826; Organism No. 27, bouillon-agar; read-out: Minimum Inhibitory Concentration
Method in brief: as §1

[24] = system: Mycoplasma pneumoniae IID817; experiment: Antimycoplasmal activity, MIC by phenol red colour change, organism No. 28; settings: Mycoplasma, IID817; Organism No. 28, PPLO broth + 1% glucose, 37° C.; read-out: Minimum Inhibitory Concentration (MIC)
Experimental: Mycoplasma pneumoniae IID817 was used as the test microorganism in a culture medium prepared by adding 1% of glucose to "PPLO broth (manufactured by Difco Co.) liquid culture medium" at 37° C. with phenol red as an indicator, thereby culturing the test microorganism.

[25] = system: Candida albicans IAM 4905; experiment: Antifungal activity, agar-dilution MIC, organism No. 29; settings: Candida albicans, IAM4905; Organism No. 29, bouillon-agar; read-out: Minimum Inhibitory Concentration
Method in brief: as §1

[26] = system: Aspergillus niger IFO 6342; experiment: Antifungal activity, agar-dilution MIC, organism No. 30; settings: Aspergillus niger, IFO6342; Organism No. 30, bouillon-agar; read-out: Minimum Inhibitory Concentration
Method in brief: as §1

Structure (SMILES)	MIC [1]	MIC [2]	MIC [3]	MIC [4]	MIC [5]	MIC [6]	MIC [7]	MIC [8]	MIC (Salmonella typhi 901)	MIC [9]	MIC [10]	MIC [11]	MIC [12]	MIC [13]	MIC [14]	MIC [15]	MIC [16]	MIC [17]	MIC [18]	MIC (Proteus vulgaris OX-19)	also measured
[C-]#[N+]C12CC3(/C=C/C(=O)OCC(=O)c4ccc([N+](=O)[O-])cc4)OC3C1O2 (stereo not drawn) [compound 8]	12.5 mg/L (≈ 35.1 µM)	25 mg/L (≈ 70.2 µM)	12.5 mg/L (≈ 35.1 µM)	50 mg/L (≈ 140 µM)	25 mg/L (≈ 70.2 µM)	25 mg/L (≈ 70.2 µM)	50 mg/L (≈ 140 µM)	25 mg/L (≈ 70.2 µM)	12.5 mg/L (≈ 35.1 µM)	25 mg/L (≈ 70.2 µM)	25 mg/L (≈ 70.2 µM)	12.5 mg/L (≈ 35.1 µM)	100 mg/L (≈ 281 µM)	100 mg/L (≈ 281 µM)	> 100 mg/L	> 100 mg/L	> 100 mg/L	25 mg/L (≈ 70.2 µM)	100 mg/L (≈ 281 µM)	12.5 mg/L (≈ 35.1 µM)	MIC (Proteus vulgaris HX-19): 12.5 mg/L (≈ 35.1 µM); MIC [19]: > 100 mg/L; MIC [20]: > 100 mg/L; MIC (Enterobacter cloacae 963): > 100 mg/L; MIC [21]: 12.5 mg/L (≈ 35.1 µM); MIC [22]: 50 mg/L (≈ 140 µM); MIC [23]: 25 mg/L (≈ 70.2 µM); MIC [24]: 1.56 mg/L; MIC [25]: 25 mg/L (≈ 70.2 µM); MIC [26]: 100 mg/L (≈ 281 µM)
[C-]#[N+]C12CC3(/C=C/C(=O)OC)OC3C1O2 (stereo not drawn) [Compound No. 1]	12.5 mg/L (≈ 60.3 µM)	12.5 mg/L (≈ 60.3 µM)	6.25 mg/L (≈ 30.2 µM)	200 mg/L (≈ 965 µM)	12.5 mg/L (≈ 60.3 µM)	12.5 mg/L (≈ 60.3 µM)	6.25 mg/L (≈ 30.2 µM)	12.5 mg/L (≈ 60.3 µM)	3.13 mg/L (≈ 15.1 µM)	6.25 mg/L (≈ 30.2 µM)	6.25 mg/L (≈ 30.2 µM)	6.25 mg/L (≈ 30.2 µM)	200 mg/L (≈ 965 µM)	50 mg/L (≈ 241 µM)	> 200 mg/L	> 200 mg/L	> 200 mg/L	6.25 mg/L (≈ 30.2 µM)	6.25 mg/L (≈ 30.2 µM)	6.25 mg/L (≈ 30.2 µM)	MIC (Proteus vulgaris HX-19): 0.2 mg/L (≈ 0.965 µM); MIC [19]: 25 mg/L (≈ 121 µM); MIC [20]: > 200 mg/L; MIC (Enterobacter cloacae 963): 25 mg/L (≈ 121 µM); MIC [21]: 6.25 mg/L (≈ 30.2 µM); MIC [22]: 100 mg/L (≈ 483 µM); MIC [23]: 12.5 mg/L (≈ 60.3 µM); MIC [24]: < 0.2 mg/L; MIC [25]: 6.25 mg/L (≈ 30.2 µM); MIC [26]: 12.5 mg/L (≈ 60.3 µM)
